According to PubChem BioAssay (NCI):
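Growth conditions: 96-well plates. Treatment: test compound, 48 hours, 5 concentrations. Analysis: linear interpolation between bracketing concentrations; unreached endpoints set to highest concentration. TGI: concentration producing complete growth inhibition.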

What was measured:
Experiment in all cases: growth of human tumour cells (NCI), 48 h
786-0 renal = tested on: 786-0 renal
A498 renal = tested on: A498 renal
A549 NSCLC = tested on: A549 NSCLC
ACHN renal = tested on: ACHN renal
BT-549 breast = tested on: BT-549 breast
CAKI-1 renal = tested on: CAKI-1 renal
CCRF-CEM leukemia = tested on: CCRF-CEM leukemia
COLO 205 colon = tested on: COLO 205 colon
DU-145 prostate = tested on: DU-145 prostate
EKVX NSCLC = tested on: EKVX NSCLC
HCC-2998 colon = tested on: HCC-2998 colon
HCT-116 colon = tested on: HCT-116 colon
HCT-15 colon = tested on: HCT-15 colon
HOP-62 NSCLC = tested on: HOP-62 NSCLC
HS 578T breast = tested on: HS 578T breast
HT29 colon = tested on: HT29 colon
IGROV1 ovarian = tested on: IGROV1 ovarian
K-562 leukemia = tested on: K-562 leukemia
KM12 colon = tested on: KM12 colon
LOX IMVI melanoma = tested on: LOX IMVI melanoma
M14 melanoma = tested on: M14 melanoma
MALME-3M melanoma = tested on: MALME-3M melanoma
MCF7 breast = tested on: MCF7 breast
MDA-MB-231 breast = tested on: MDA-MB-231 breast
MDA-MB-435 = tested on: MDA-MB-435
MDA-N = tested on: MDA-N
MOLT-4 leukemia = tested on: MOLT-4 leukemia
NCI-H226 lung = tested on: NCI-H226 lung
NCI-H460 lung = tested on: NCI-H460 lung
NCI-H522 lung = tested on: NCI-H522 lung
NCI/ADR-RES ovarian = tested on: NCI/ADR-RES ovarian
OVCAR-3 ovarian = tested on: OVCAR-3 ovarian
OVCAR-4 ovarian = tested on: OVCAR-4 ovarian
OVCAR-5 ovarian = tested on: OVCAR-5 ovarian
OVCAR-8 ovarian = tested on: OVCAR-8 ovarian
PC-3 prostate = tested on: PC-3 prostate
RPMI-8226 leukemia = tested on: RPMI-8226 leukemia
RXF 393 renal = tested on: RXF 393 renal
SF-268 CNS = tested on: SF-268 CNS
SF-295 CNS = tested on: SF-295 CNS
SK-MEL-2 melanoma = tested on: SK-MEL-2 melanoma
SK-MEL-28 melanoma = tested on: SK-MEL-28 melanoma
SK-MEL-5 melanoma = tested on: SK-MEL-5 melanoma
SK-OV-3 ovarian = tested on: SK-OV-3 ovarian
SN12C renal = tested on: SN12C renal
SNB-19 CNS = tested on: SNB-19 CNS
SNB-75 CNS = tested on: SNB-75 CNS
SR leukemia = tested on: SR leukemia
SW-620 colon = tested on: SW-620 colon
T-47D breast = tested on: T-47D breast
TK-10 renal = tested on: TK-10 renal
U251 CNS = tested on: U251 CNS
UACC-257 melanoma = tested on: UACC-257 melanoma
UACC-62 melanoma = tested on: UACC-62 melanoma
UO-31 renal = tested on: UO-31 renal
HL-60(TB) leukemia = tested on: HL-60(TB) leukemia
HOP-92 NSCLC = tested on: HOP-92 NSCLC
NCI-H23 lung = tested on: NCI-H23 lung
SF-539 CNS = tested on: SF-539 CNS

Question: With `Cc1ccc(C)n1-n1c(Cc2ccccc2)n[nH]c1=O` as the molecule, how does the TGI (786-0 renal) read?
Answer: > 100 µM

Question: And the TGI (A498 renal)?
Answer: > 100 µM

Question: And the TGI (A549 NSCLC)?
Answer: > 100 µM

Question: And the TGI (ACHN renal)?
Answer: > 100 µM

Question: And the TGI (BT-549 breast)?
Answer: > 100 µM

Question: What about the TGI (CAKI-1 renal) of the same molecule?
Answer: > 100 µM

Question: And the TGI (CCRF-CEM leukemia)?
Answer: > 100 µM

Question: What about the TGI (COLO 205 colon) of the same molecule?
Answer: > 100 µM

Question: And the TGI (DU-145 prostate)?
Answer: > 100 µM

Question: What about the TGI (EKVX NSCLC) of the same molecule?
Answer: > 100 µM

Question: And the TGI (HCC-2998 colon)?
Answer: > 100 µM

Question: And the TGI (HCT-116 colon)?
Answer: > 100 µM

Question: What about the TGI (HCT-15 colon) of the same molecule?
Answer: > 100 µM

Question: And the TGI (HOP-62 NSCLC)?
Answer: > 100 µM

Question: What about the TGI (HS 578T breast) of the same molecule?
Answer: > 100 µM

Question: And the TGI (HT29 colon)?
Answer: > 100 µM

Question: And the TGI (IGROV1 ovarian)?
Answer: > 100 µM

Question: And the TGI (K-562 leukemia)?
Answer: > 100 µM

Question: And the TGI (KM12 colon)?
Answer: > 100 µM

Question: And the TGI (LOX IMVI melanoma)?
Answer: > 100 µM

Question: What about the TGI (M14 melanoma) of the same molecule?
Answer: > 100 µM

Question: And the TGI (MALME-3M melanoma)?
Answer: > 100 µM

Question: What about the TGI (MCF7 breast) of the same molecule?
Answer: > 100 µM

Question: What about the TGI (MDA-MB-231 breast) of the same molecule?
Answer: > 100 µM

Question: What about the TGI (MDA-MB-435) of the same molecule?
Answer: > 100 µM

Question: What about the TGI (MDA-N) of the same molecule?
Answer: > 100 µM

Question: What about the TGI (MOLT-4 leukemia) of the same molecule?
Answer: > 100 µM

Question: What about the TGI (NCI-H226 lung) of the same molecule?
Answer: > 100 µM

Question: And the TGI (NCI-H460 lung)?
Answer: > 100 µM

Question: And the TGI (NCI-H522 lung)?
Answer: > 100 µM

Question: And the TGI (NCI/ADR-RES ovarian)?
Answer: > 100 µM

Question: What about the TGI (OVCAR-3 ovarian) of the same molecule?
Answer: > 100 µM

Question: What about the TGI (OVCAR-4 ovarian) of the same molecule?
Answer: > 100 µM

Question: And the TGI (OVCAR-5 ovarian)?
Answer: > 100 µM

Question: And the TGI (OVCAR-8 ovarian)?
Answer: > 100 µM

Question: What about the TGI (PC-3 prostate) of the same molecule?
Answer: > 100 µM

Question: And the TGI (RPMI-8226 leukemia)?
Answer: > 100 µM

Question: And the TGI (RXF 393 renal)?
Answer: > 100 µM

Question: And the TGI (SF-268 CNS)?
Answer: > 100 µM

Question: What about the TGI (SF-295 CNS) of the same molecule?
Answer: > 100 µM

Question: And the TGI (SK-MEL-2 melanoma)?
Answer: > 100 µM

Question: And the TGI (SK-MEL-28 melanoma)?
Answer: > 100 µM

Question: And the TGI (SK-MEL-5 melanoma)?
Answer: > 100 µM

Question: And the TGI (SK-OV-3 ovarian)?
Answer: > 100 µM

Question: What about the TGI (SN12C renal) of the same molecule?
Answer: > 100 µM

Question: What about the TGI (SNB-19 CNS) of the same molecule?
Answer: > 100 µM

Question: What about the TGI (SNB-75 CNS) of the same molecule?
Answer: > 100 µM

Question: What about the TGI (SR leukemia) of the same molecule?
Answer: > 100 µM

Question: And the TGI (SW-620 colon)?
Answer: > 100 µM

Question: And the TGI (T-47D breast)?
Answer: > 100 µM

Question: What about the TGI (TK-10 renal) of the same molecule?
Answer: > 100 µM

Question: What about the TGI (U251 CNS) of the same molecule?
Answer: > 100 µM

Question: And the TGI (UACC-257 melanoma)?
Answer: > 100 µM

Question: And the TGI (UACC-62 melanoma)?
Answer: > 100 µM

Question: And the TGI (UO-31 renal)?
Answer: > 100 µM

Question: Which results are given for `Cc1nc(Nc2ccccc2Cl)sc1C(=O)CC(=O)C(=O)Nc1c(Cl)cccc1Cl`?
Answer: TGI (786-0 renal): 66 µM; TGI (A549 NSCLC): > 100 µM; TGI (ACHN renal): > 100 µM; TGI (BT-549 breast): 86.2 µM; TGI (CAKI-1 renal): > 100 µM; TGI (CCRF-CEM leukemia): > 100 µM; TGI (COLO 205 colon): 38.7 µM; TGI (DU-145 prostate): > 100 µM; TGI (EKVX NSCLC): 71.1 µM; TGI (HCC-2998 colon): > 100 µM; TGI (HCT-116 colon): 52 µM; TGI (HCT-15 colon): > 100 µM; TGI (HL-60(TB) leukemia): 33.6 µM; TGI (HOP-62 NSCLC): > 100 µM; TGI (HOP-92 NSCLC): > 100 µM; TGI (HS 578T breast): > 100 µM; TGI (HT29 colon): > 100 µM; TGI (IGROV1 ovarian): 63.5 µM; TGI (K-562 leukemia): > 100 µM; TGI (KM12 colon): 91.4 µM; TGI (LOX IMVI melanoma): 85.8 µM; TGI (M14 melanoma): > 100 µM; TGI (MCF7 breast): > 100 µM; TGI (MDA-MB-231 breast): 42.9 µM; TGI (MDA-MB-435): 50 µM; TGI (MDA-N): > 100 µM; TGI (MOLT-4 leukemia): 67.9 µM; TGI (NCI-H226 lung): 49.7 µM; TGI (NCI-H23 lung): > 100 µM; TGI (NCI-H460 lung): > 100 µM; TGI (NCI-H522 lung): 60.4 µM; TGI (NCI/ADR-RES ovarian): 54.1 µM; TGI (OVCAR-3 ovarian): 57.8 µM; TGI (OVCAR-4 ovarian): > 100 µM; TGI (OVCAR-5 ovarian): > 100 µM; TGI (OVCAR-8 ovarian): 96.7 µM; TGI (PC-3 prostate): > 100 µM; TGI (RPMI-8226 leukemia): > 100 µM; TGI (RXF 393 renal): 92.9 µM; TGI (SF-268 CNS): > 100 µM; TGI (SF-295 CNS): > 100 µM; TGI (SF-539 CNS): 83 µM; TGI (SK-MEL-2 melanoma): 56.2 µM; TGI (SK-MEL-28 melanoma): 85.6 µM; TGI (SK-MEL-5 melanoma): > 100 µM; TGI (SK-OV-3 ovarian): > 100 µM; TGI (SN12C renal): > 100 µM; TGI (SNB-19 CNS): > 100 µM; TGI (SNB-75 CNS): 88.6 µM; TGI (SR leukemia): 68.6 µM; TGI (SW-620 colon): 65.5 µM; TGI (T-47D breast): 71.6 µM; TGI (TK-10 renal): > 100 µM; TGI (U251 CNS): 64.3 µM; TGI (UACC-257 melanoma): > 100 µM; TGI (UACC-62 melanoma): > 100 µM; TGI (UO-31 renal): 86.1 µM
